Laboratory results published in PubChem BioAssay AID588822 (The Scripps Research Institute Molecular Screening Center, 2011).
The source made the active and inactive calls.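 Rule for the calls: active = half-maximal inhibitory concentration of 10 µM or lower; inactive = the rest.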

The compounds below were run against Nuclear receptor subfamily 0 group B member 1 (Homo sapiens) (UniProt P51843) (assay: relief of Gal4-DAX1 transcriptional repression – cell-based, luminescence, HEK293, Gal4-DAX1 reporter, dose response, late-stage follow-up (AID 588822)). Conditions: HEK293 Gal4-DAX1 luciferase reporter.
Chain of Nuclear receptor subfamily 0 group B member 1 (Homo sapiens) (P51843 207-470 limits assumed): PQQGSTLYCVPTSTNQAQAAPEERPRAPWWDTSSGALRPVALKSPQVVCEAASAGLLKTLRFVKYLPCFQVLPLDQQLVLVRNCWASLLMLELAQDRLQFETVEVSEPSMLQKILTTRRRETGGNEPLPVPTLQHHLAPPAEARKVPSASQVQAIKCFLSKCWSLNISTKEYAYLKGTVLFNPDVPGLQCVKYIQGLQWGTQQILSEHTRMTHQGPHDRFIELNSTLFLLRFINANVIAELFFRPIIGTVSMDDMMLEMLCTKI

IC50, inactive:
Cc1cc(C(=O)Nc2ccc3c(c2)OCO3)cs1 > 69.5 µM, COc1cccc(C(=O)Nc2ccc3c(c2)OCCO3)c1 > 69.5 µM, COc1cccc(C(=O)Nc2ccc3c(c2)OCO3)c1 > 69.5 µM, O=C(Nc1ccc2c(c1)OCO2)c1cccs1 > 69.5 µM, CSc1ccccc1C(=O)Nc1ccc2c(c1)OCO2 > 69.5 µM, Cc1occc1C(=O)Nc1ccc2c(c1)OCO2 > 69.5 µM, COc1ccc(OC)c(C(C)NC(=O)c2ccccc2Cl)c1 (centres undefined) > 69.5 µM, COc1ccc(OC)c(C(C)NC(=O)c2ccccc2C)c1 (centres undefined) > 69.5 µM, O=C(Nc1ccc2c(c1)OCO2)c1ccc(C2SCC(=O)N2Cc2ccccc2)cc1 (centres undefined) > 69.5 µM, COc1cccc(C(=O)NC(C)c2cc(OC)ccc2OC)c1 (centres undefined) > 69.5 µM, O=C(Nc1ccc2c(c1)OCO2)c1ccc(C2SCC(=O)N2Cc2ccco2)cc1 (centres undefined) > 69.5 µM, COc1ccc(OC)c(C(C)NC(=O)c2ccccc2)c1 (centres undefined) > 69.5 µM, COc1ccc(OC)c(C(C)NC(=O)c2ccc(F)cc2)c1 (centres undefined) > 69.5 µM, O=C(Cc1cccs1)Nc1ccc2c(c1)OCO2 > 69.5 µM, Cn1c(=O)n(C)c2cc(C(=O)Nc3ccc4c(c3)OCCO4)ccc21 > 69.5 µM, COc1ccc(OC)c(C(C)NC(=O)c2c(F)cccc2Cl)c1 (centres undefined) > 69.5 µM, COc1ccc(OC)c(C(C)NC(=O)c2ccc(Cl)cc2)c1 (centres undefined) > 69.5 µM, O=C(Nc1ccc2c(c1)OCO2)c1ccc2ccccc2c1 > 69.5 µM, COc1ccc(OC)c(C(C)NC(=O)c2cccc(F)c2)c1 (centres undefined) > 69.5 µM, COc1ccc(OC)c(C(C)NC(=O)c2cccc3ccccc23)c1 (centres undefined) > 69.5 µM, O=C(Nc1ccc2c(c1)OCCO2)c1ccc2ccccc2c1 > 69.5 µM, COc1ccc(OC)c(C(C)NC(=O)c2cccc(C)c2)c1 (centres undefined) > 69.5 µM, COc1ccc(OC)c(C(C)NC(=O)c2ccccc2F)c1 (centres undefined) > 69.5 µM, COc1ccc(OC)c(C(C)NC(=O)c2ccc(C(C)(C)C)cc2)c1 (centres undefined) > 69.5 µM, COc1ccc(OC)c(C(C)NC(=O)c2ccc(C)cc2)c1 (centres undefined) > 69.5 µM, CSc1ccccc1C(=O)Nc1ccc2c(c1)OCCO2 > 69.5 µM, Cn1c(=O)n(C)c2cc(C(=O)Nc3ccc4c(c3)OCO4)ccc21 > 69.5 µM, COc1ccc(OC)c(C(C)NC(=O)c2ccc3c(c2)OCCO3)c1 (centres undefined) > 69.5 µM, CN(C)c1cccc(C(=O)Nc2ccc3c(c2)OCCO3)c1 > 69.5 µM
